Reference: patent US9822118B2, “Bicyclic heteroaryl urea, thiourea, guanidine and cyanoguanidine compounds as TrkA kinase inhibitors” (Array BioPharma Inc., priority 2012, dated 2017)
pIC50: −log10 of the molar value.

Target: T1, recombinant human TrkA (Homo sapiens, UniProt P04629)
T1 construct: 6HIS tagged cytoplasmic domain from Invitrogen, Catalog No. PV3144; purchased Invitrogen PV3144
Experiment: TrkA LanthaScreen Eu Kinase Binding Assay
Conditions: averaged IC50; TR-FRET binding assay, 60 min at 22° C.; read-out: TrkA Enzyme IC50
Experimental: TrkA binding activity was determined in a TrkA LanthaScreen™ Eu Kinase Binding Assay. 5 nM His-tagged recombinant human TrkA (6HIS tagged cytoplasmic domain from Invitrogen, Catalog No. PV3144) was incubated with 4 nM Alexa-Fluor® Tracer 236 (Invitrogen Cat. No. PV5592), 2 nM biotinylated anti-His (Invitrogen Cat. No. PV6090), and 2 nM europium-labeled Streptavidin (Invitrogen Cat. No. PV5899), in buffer (25 mM MOPS, pH 7.5, 5 mM MgCl2, 0.005% Triton X-100). Three fold serial dilutions of compounds of the invention in DMSO were added to a final percentage of 2% DMSO. After 60-minute incubation at 22° C., the reaction was measured using the EnVision multimode plate reader (PerkinElmer) via TR-FRET dual wavelength detection at […]. The percent of control was calculated using a ratiometric emission factor. The IC50 values were determined by fitting a four parameter model to the percent of control data.
Table A provides averaged IC50 values for compounds of the invention when tested in the assay of Example A, where A represents an averaged IC50 value <100 nM; and B represents an averaged IC50 value from 100 to 1,000 nM.

T1 sequence (P04629 440-796 limits assumed): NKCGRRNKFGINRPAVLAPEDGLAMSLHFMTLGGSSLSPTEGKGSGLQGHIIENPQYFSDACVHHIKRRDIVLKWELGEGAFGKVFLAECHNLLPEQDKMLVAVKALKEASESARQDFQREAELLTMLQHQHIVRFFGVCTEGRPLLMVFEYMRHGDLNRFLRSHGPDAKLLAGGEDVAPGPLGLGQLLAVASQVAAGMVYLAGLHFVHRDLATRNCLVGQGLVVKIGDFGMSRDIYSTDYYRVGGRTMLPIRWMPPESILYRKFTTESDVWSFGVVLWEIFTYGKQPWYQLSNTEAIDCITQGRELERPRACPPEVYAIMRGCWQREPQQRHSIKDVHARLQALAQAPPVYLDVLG

Structure (SMILES)	pIC50
CCOc1nn(-c2ccccc2)c(NC(=O)Nc2c(-c3ccc(F)cc3)nc3c(C(F)(F)F)cccn23)c1C [Example 33, 1-(3-ethoxy-4-methyl-1-phenyl-1H-pyrazol-5-yl)-3-(2-(4-fluorophenyl)-8-(trifluoromethyl)imidazo[1,2-a]pyridin-3-yl)urea]	> 7.00
COc1ccc(-c2nc3c(C)cccn3c2NC(=O)Nc2c3c(nn2-c2ccccc2)CS(=O)(=O)C3)cc1 [Example 24, 1-(5,5-dioxido-2-phenyl-4,6-dihydro-2H-thieno[3,4-c]pyrazol-3-yl)-3-(2-(4-methoxyphenyl)-8-methylimidazo[1,2-a]pyridin-3-yl)urea]	6.00 to 7.00
O=C(Nc1c2c(nn1-c1ccccc1)CCC2)Nc1c(-c2ccccc2)nc2c(C(F)(F)F)cccn12 [Example 13, 1-(2-phenyl-2,4,5,6-tetrahydrocyclopenta[c]pyrazol-3-yl)-3-(2-phenyl-8-(trifluoromethyl)imidazo[1,2-a]pyridin-3-yl)urea]	> 7.00
O=C(Nc1c(-c2ccccc2)nn2ccccc12)Nc1c2c(nn1-c1ccccc1)CCC2 [Example 38, 1-(2-phenyl-2,4,5,6-tetrahydrocyclopenta[c]pyrazol-3-yl)-3-(2-phenylpyrazolopyridin-3-yl)urea]	> 7.00
COCc1nn(-c2ccccc2)c(NC(=O)Nc2c(-c3ccccc3)nc3c(C(F)(F)F)cccn23)c1C [Example 31, 1-(3-(methoxymethyl)-4-methyl-1-phenyl-1H-pyrazol-5-yl)-3-(2-phenyl-8-(trifluoromethyl)imidazo[1,2-a]pyridin-3-yl)urea]	6.00 to 7.00
CCOc1nn(-c2ccccc2)c(NC(=O)Nc2c(-c3ccccc3)nc3ccccn23)c1C [Example 5, 1-(3-ethoxy-4-methyl-1-phenyl-1H-pyrazol-5-yl)-3-(2-phenylimidazo[1,2-a]pyridin-3-yl)urea]	6.00 to 7.00
COc1nn(-c2ccccc2)c(NC(=O)Nc2c(-c3ccccc3)nc3c(C(F)(F)F)cccn23)c1C [Example 22, 1-(3-methoxy-4-methyl-1-phenyl-1H-pyrazol-5-yl)-3-(2-phenyl-8-(trifluoromethyl)imidazo[1,2-a]pyridin-3-yl)urea]	> 7.00
COc1nn(-c2ccccc2)c(NC(=O)Nc2c(-c3ccccc3)nc3c(C)cccn23)c1C [Example 21, 1-(3-methoxy-4-methyl-1-phenyl-1H-pyrazol-5-yl)-3-(8-methyl-2-phenylimidazo[1,2-a]pyridin-3-yl)urea]	> 7.00
Cc1nccn2c(NC(=O)Nc3c4c(nn3-c3ccccc3)CCC4)c(-c3ccccc3)nc12 [Example 1, 1-(8-methyl-2-phenylimidazo[1,2-a]pyrazin-3-yl)-3-(2-phenyl-2,4,5,6-tetrahydrocyclopenta[c]pyrazol-3-yl)urea]	> 7.00
CCOc1nn(-c2ccccc2)c(NC(=O)Nc2c(-c3ccccc3)nc3c(C(F)(F)F)cccn23)c1C [Example 3, 1-(3-ethoxy-4-methyl-1-phenyl-1H-pyrazol-5-yl)-3-(2-phenyl-8-(trifluoromethyl)imidazo[1,2-a]pyridin-3-yl)urea]	> 7.00
Cc1cccn2c(NC(=O)Nc3c4c(nn3-c3ccccc3)CCCC4)c(-c3ccccc3)nc12 [Example 19, 1-(8-methyl-2-phenylimidazo[1,2-a]pyridin-3-yl)-3-(2-phenyl-4,5,6,7-tetrahydro-2H-indazol-3-yl)urea]	> 7.00
CCOc1nn(-c2ccccc2)c(NC(=O)Nc2c(-c3ccc(OC)nc3)nc3c(C)cccn23)c1C [Example 16, 1-(3-ethoxy-4-methyl-1-phenyl-1H-pyrazol-5-yl)-3-(2-(6-methoxypyridin-3-yl)-8-methylimidazo[1,2-a]pyridin-3-yl)urea]	6.00 to 7.00
Cc1c(OCC(CO)CO)nn(-c2ccccc2)c1NC(=O)Nc1c(-c2ccccc2)nc2c(C(F)(F)F)cccn12 [Example 25, 1-(3-(3-hydroxy-2-(hydroxymethyl)propoxy)-4-methyl-1-phenyl-1H-pyrazol-5-yl)-3-(2-phenyl-8-(trifluoromethyl)imidazo[1,2-a]pyridin-3-yl)urea]	> 7.00
O=C(Nc1c2c(nn1-c1ccccc1)CCCC2)Nc1c(-c2ccccc2)nc2c(C(F)(F)F)cccn12 [Example 20, 1-(2-phenyl-4,5,6,7-tetrahydro-2H-indazol-3-yl)-3-(2-phenyl-8-(trifluoromethyl)imidazo[1,2-a]pyridin-3-yl)urea]	> 7.00
CCOc1nn(-c2ccccc2)c(NC(=O)Nc2c(-c3cccc(F)c3)nc3c(C(F)(F)F)cccn23)c1C [Example 32, 1-(3-ethoxy-4-methyl-1-phenyl-1H-pyrazol-5-yl)-3-(2-(3-fluorophenyl)-8-(trifluoromethyl)imidazo[1,2-a]pyridin-3-yl)urea]	6.00 to 7.00
Cn1cc(-c2nn(-c3ccccc3)c(NC(=O)Nc3c(-c4ccccc4)nc4c(C(F)(F)F)cccn34)c2Cl)cn1 [Example 34, 1-(4-chloro-1′-methyl-1-phenyl-1H,1′H-[3,4′-bipyrazol]-5-yl)-3-(2-phenyl-8-(trifluoromethyl)imidazo[1,2-a]pyridin-3-yl)urea]	> 7.00
Cc1c(OCC(C)(C)O)nn(-c2ccccc2)c1NC(=O)Nc1c(-c2ccccc2)nc2c(C(F)(F)F)cccn12 [Example 26, 1-(3-(2-hydroxy-2-methylpropoxy)-4-methyl-1-phenyl-1H-pyrazol-5-yl)-3-(2-phenyl-8-(trifluoromethyl)imidazo[1,2-a]pyridin-3-yl)urea]	> 7.00
O=C(Nc1c2c(nn1-c1ccccc1)CCC2)Nc1c2ccccc2nn1-c1ccccc1 [Example 37, 1-(2-phenyl-2,4,5,6-tetrahydrocyclopenta[c]pyrazol-3-yl)-3-(2-phenyl-2H-indazol-3-yl)urea]	6.00 to 7.00
CCOc1nn(-c2ccccc2)c(NC(=O)Nc2c(-c3ccccc3)nc3c(Cl)cccn23)c1C [Example 4, 1-(8-chloro-2-phenylimidazo[1,2-a]pyridin-3-yl)-3-(3-ethoxy-4-methyl-1-phenyl-1H-pyrazol-5-yl)urea]	> 7.00
CCOc1nn(-c2ccccc2)c(NC(=O)Nc2c(-c3ccccc3)nn3ccccc23)c1C [Example 39, 1-(3-ethoxy-4-methyl-1-phenyl-1H-pyrazol-5-yl)-3-(2-phenylpyrazolo[1,5-a]pyridin-3-yl)urea]	6.00 to 7.00
Cc1c(OC[C@@H](O)CO)nn(-c2ccccc2)c1NC(=O)Nc1c(-c2ccccc2)nc2c(C(F)(F)F)cccn12 [Example 29, (S)-1-(3-(2,3-dihydroxypropoxy)-4-methyl-1-phenyl-1H-pyrazol-5-yl)-3-(2-phenyl-8-(trifluoromethyl)imidazo[1,2-a]pyridin-3-yl)urea]	> 7.00
O=C(Nc1c2c(nn1-c1ccccc1)CS(=O)(=O)C2)Nc1c(-c2ccccc2)nc2c(C(F)(F)F)cccn12 [Example 18, 1-(5,5-dioxido-2-phenyl-4,6-dihydro-2H-thieno[3,4-c]pyrazol-3-yl)-3-(2-phenyl-8-(trifluoromethyl)imidazo[1,2-a]pyridin-3-yl)urea]	> 7.00
Cc1c(OC[C@H](C)O)nn(-c2ccccc2)c1NC(=O)Nc1c(-c2ccccc2)nc2c(C)cccn12 [Example 11, (S)-1-(3-(2-hydroxypropoxy)-4-methyl-1-phenyl-1H-pyrazol-5-yl)-3-(8-methyl-2-phenylimidazo[1,2-a]pyridin-3-yl)urea]	6.00 to 7.00
CCOc1nn(-c2ccccc2)c(NC(=O)Nc2c(-c3ccc(OC)cc3)nc3c(C)cccn23)c1C [Example 23, 1-(3-ethoxy-4-methyl-1-phenyl-1H-pyrazol-5-yl)-3-(2-(4-methoxyphenyl)-8-methylimidazo[1,2-a]pyridin-3-yl)urea]	6.00 to 7.00
COC[C@@H](O)COc1nn(-c2ccccc2)c(NC(=O)Nc2c(-c3ccccc3)nc3c(C(F)(F)F)cccn23)c1C [Example 35, (R)-1-(3-(2-hydroxy-3-methoxypropoxy)-4-methyl-1-phenyl-1H-pyrazol-5-yl)-3-(2-phenyl-8-(trifluoromethyl)imidazo[1,2-a]pyridin-3-yl)urea]	6.00 to 7.00
Cc1cccn2c(NC(=O)Nc3c4c(nn3-c3ccccc3)CCC4)c(-c3ccccc3)nc12 [Example 12, 1-(8-methyl-2-phenylimidazo[1,2-a]pyridin-3-yl)-3-(2-phenyl-2,4,5,6-tetrahydrocyclopenta[c]pyrazol-3-yl)urea]	> 7.00
Cc1cccn2c(NC(=O)Nc3c4c(nn3-c3ccccc3)COC4)c(-c3ccccc3)nc12 [Example 14, 1-(8-methyl-2-phenylimidazo[1,2-a]pyridin-3-yl)-3-(2-phenyl-4,6-dihydro-2H-furo[3,4-c]pyrazol-3-yl)urea]	> 7.00
CCOc1nn(-c2ccccc2)c(NC(=O)Nc2c(-c3ccccc3)nc3c(C)cccn23)c1C [Example 7, 1-(3-ethoxy-4-methyl-1-phenyl-1H-pyrazol-5-yl)-3-(8-methyl-2-phenylimidazo[1,2-a]pyridin-3-yl)urea]	> 7.00
Cc1c(-c2cnn(C)c2)nn(-c2ccccc2)c1NC(=O)Nc1c(-c2ccccc2)nc2c(C(F)(F)F)cccn12 [Example 30, 1-(1′,4-dimethyl-1-phenyl-1H,1′H-[3,4′-bipyrazol]-5-yl)-3-(2-phenyl-8-(trifluoromethyl)imidazo[1,2-a]pyridin-3-yl)urea]	> 7.00
CCOc1nn(-c2ccccc2)c(NC(=O)Nc2c(-c3ccccc3)nc3c(Br)cccn23)c1C [Example 15, 1-(8-bromo-2-phenylimidazo[1,2-a]pyridin-3-yl)-3-(3-ethoxy-4-methyl-1-phenyl-1H-pyrazol-5-yl)urea]	> 7.00
